The text below walks through data of patent US4382958A, “Secondary amines and compositions for treatment of hypoglycaemia or obesity” (priority 1980, dated 1983).

For experiment [1], the system named is Platelet aggregation (response to collagen). Kind of experiment: Platelet aggregation inhibition activity: response to intravenous collagen in mice. Type of experiment: in vivo. The note with it: two hours before collagen 400 μg/kg i.v. Here is the method:
Male CFLP mice (ca 20 g, n=8) were dosed orally with compound or vehicle (controls) after an overnight fast. Two hours later each mouse received an intravenous dose of collagen (400 μg/kg, pH 6-6.6). Exactly 30 sec. after injection of collagen, each mouse was placed in a chamber of CO2 until respiration ceased. […] Each concentration was expressed as a percent of that obtained in a tail blood sample taken immediately before injection of collagen.

In experiment [2] the test system is Female CFLP mice. As to the kind of experiment: Effect on energy expenditure and food intake of mice. The following applies: Mus musculus, % of mice dosed with water; for response vs control in vivo at 22.9 mg/kg: 22.9 mg/kg po; for response vs control in vivo at 23.3 mg/kg: 23.3 mg/kg po; for response vs control in vivo at 24.9 mg/kg: 24.9 mg/kg po; for response vs control in vivo at 20.2 mg/kg: 20.2 mg/kg po; for response vs control in vivo at 19.1 mg/kg: 19.1 mg/kg po; for response vs control in vivo at 20.3 mg/kg: 20.3 mg/kg po; for response vs control in vivo at 22.1 mg/kg: 22.1 mg/kg po; for response vs control in vivo at 5.7 mg/kg: 5.7 mg/kg po. Type of experiment: in vivo. Here is the method:
Female CFLP mice each weighing approximately 24 g were given food and water ad lib before and during the experiment. The compounds were dissolved in water by addition of one mole of hydrochloric acid per mole of compound and these solutions were administered orally to each of 12 mice. A further 12 mice were dosed orally with water. The mice were placed in boxes through which air was drawn and the oxygen content of the air leaving the boxes was measured. The energy expenditure of the mice was calculated for 21 hours after dosing from the volume of air leaving the boxes and its oxygen content following the principles described by J. B. de V. Weir, J. Physiol. […] The food intake of the mice was measured over this same period of 21 hours. The results are expressed as a percentage of the mean food intake or rate of energy expenditure of the mice dosed with water.

Experiment [3] deals with Rat hearts. As to the kind of experiment: Cardiac activity: rat hearts perfused by the Langendorff procedure. The procedure: Rat hearts were perfused by the Langendorff procedure.
Hearts were dissected free within 30 seconds of death and reverse perfused via the aorta and coronary vessels with Krebs-Ringer bicarbonate solution (pH 7.4, 37° C.) gassed with 95% oxygen: 5% carbon dioxide at a flow rate between 8-12 cm^3 /minute. Responses were observed after injection of drug dissolved in isotonic saline into the perfusion media.
Results are expressed as a percentage of the maximum response due to salbutamol.

Experiment [4] relates to Female CFLP mice. As to the kind of experiment: Hypoglycaemic activity: blood glucose of fasted mice after subcutaneous glucose. The note with it: Mus musculus, read-out: REDUCTION IN AREA UNDER BLOOD GLUCOSE CURVE (%); for inhibition in vivo at 1 µmol/kg: 1.0 μ mol/kg oral. Type of experiment: in vivo. Here is the method:
Female CFLP mice, weighing approximately 25 g, were fasted for 24 hours prior to the study. The compounds under study were administered orally as an aqueous solution to each of 8 mice. 30 minutes later a blood sample ([…]) was obtained from the tail for the analysis of blood glucose. Immediately after taking this blood sample, glucose (1 g/kg body weight) was administered subcutaneously to each mouse. 8 mice were given water as a control. Blood samples were then obtained from each mouse at 30 minute intervals for 120 minutes.
Compounds that produced a significant (P<0.05) reduction on blood glucose, compared with control mice given water, at any time interval, were considered active. The area under the blood glucose curve over the 2 hour period after the administration of the glucose was calculated for each compound and compared with the value for control animals.

Where [5] appears, read: 0-3h, read-out: MEAN ENERGY EXPENDITURE (%) 0-3h.
[6] abbreviates: 0-21h, read-out: MEAN ENERGY EXPENDITURE (%) 0-21h.
Setting [7] is: over 21 hours, read-out: MEAN FOOD INTAKE (%).
[8] abbreviates: 30 μg added to perfusate, percentage of the maximum response due to salbutamol, read-out: HEART TENSION.
Setting [9] is: 30 μg added to perfusate, percentage of the maximum response due to salbutamol, read-out: HEART RATE.
The mark [10] stands for this setting: 2.5 μ mol/kg oral, 2 hour period after glucose, vs control mice given water.
Where [11] appears, read: 2 hour period after glucose, vs control mice given water.

Like-named read-outs stand apart in the source and are kept apart here.

Consider `CC(=O)Oc1ccccc1C(=O)O` [Aspirin, reference compound], for which the “% INHIBITION OF RESPONSE TO COLLAGEN” value in experiment [1] (600 μ mol/kg po) worked out at 47%.

On to `CC(Cc1ccc(OCCCCO)cc1)NCC(O)c1cccc(C(F)(F)F)c1` (stereo not shown) [Example 2, N-[2-(4-(4-hydroxybutoxy)phenyl)-1-methylethyl]-2-hydroxy-2-(3-trifluoromethylphenyl)ethanamine], for which the response vs control in vivo at 22.9 mg/kg turned out to be 168% in experiment [2] (setting [5]), 135% in experiment [2] (setting [6]) and 89% in experiment [2] (setting [7]). The Emax amounted to 22% in experiment [3] (setting [8]) and 0% in experiment [3] (read-out: HEART RATE). The inhibition in vivo at 2.4 µmol/kg in experiment [4] (2.4 μ mol/kg oral, 2 hour period after glucose, vs control mice given water) amounted to 57%. In addition, the “% INHIBITION OF RESPONSE TO COLLAGEN” value in experiment [1] (1 μ mol/kg po) is on record as 26%.

For the compound `CC(Cc1ccc(OCCCCCCCCCCCO)cc1)NCC(O)c1cccc(C(F)(F)F)c1` (stereo not shown) [Example 6, N-[2-(4-(11-Hydroxyundecyloxy)phenyl)1-methylethyl]-2-hydroxy-2-(3-trifluoromethylphenyl)-ethanamine], the response vs control in vivo at 23.3 mg/kg is 132% in experiment [2] (setting [5]), 101% in experiment [2] (setting [6]) and 99% in experiment [2] (setting [7]). In addition, the Emax in experiment [3] (setting [9]) was found to be 0%; in experiment [3] (setting [8]), 36%. In addition, the inhibition in vivo at 2.5 µmol/kg in experiment [4] (setting [10]) turned out to be 24%.

Turning to `CC(Cc1ccc(OC(C)(C)CO)cc1)NCC(O)c1cccc(C(F)(F)F)c1` (stereo not shown) [Example 7, N-[2-(4-(1,1-Dimethyl-2-hydroxyethoxy)phenyl)-1-methylethyl]-2-hydroxy-2-(3-trifluoromethylphenyl)-ethanamine], the response vs control in vivo at 24.9 mg/kg is 145% in experiment [2] (setting [5]), 118% in experiment [2] (setting [6]) and 116% in experiment [2] (setting [7]). The Emax in experiment [3] (setting [9]) is 46%; in experiment [3] (setting [8]), 29%. Also, the inhibition in vivo at 2.5 µmol/kg in experiment [4] (po, 2 h) amounted to 45%.

As to `COc1ccc(C(O)CNC(C)Cc2ccc(OCCO)cc2)cc1F` (stereo not shown) [Example 8, N-[2-(4-(2-Hydroxyethoxy)phenyl)-1-methylethyl]-2-hydroxy-2-(3-fluoro-4-methoxyphenyl)-ethanamine], the response vs control in vivo at 20.2 mg/kg in experiment [2] (setting [5]) worked out at 138%; in experiment [2] (setting [6]) it was 96%; in experiment [2] (setting [7]) it was 86%. In addition, the Emax in experiment [3] (setting [9]) and in experiment [3] (setting [8]) was 13% throughout. In experiment [4] (12.5 μ mol/kg oral, 2 hour period after glucose, vs control mice given water), the inhibition in vivo at 12.5 µmol/kg came out at 21%.

On to `CC(C)(CCc1ccc(OCCO)cc1)NCC(O)c1ccccc1` (stereo not shown) [Example 9, N-[3-[4-(2-Hydroxyethoxy)phenyl]-1,1-dimethylpropyl]-2-hydroxy-2-phenylethanamine], for which the values for the response vs control in vivo at 19.1 mg/kg in experiment [2] (setting [5]), in experiment [2] (setting [6]) and in experiment [2] (setting [7]) were 102%, 98% and 91%, respectively. Also, the inhibition in vivo at 50 µmol/kg in experiment [4] (50.0 μ mol/kg oral, 2 hour period after glucose, vs control mice given water) came out at 55%.

For the compound `CC(CCc1ccc(OCCO)cc1)NCC(O)c1cccc(Cl)c1` (stereo not shown) [Example 10, N-[3-(4-(2-Hydroxyethoxy)phenyl)-1-methylpropyl]-2-hydroxy-2-(3-chlorophenyl)ethanamine], the response vs control in vivo at 20.3 mg/kg is 159% in experiment [2] (setting [5]), 114% in experiment [2] (setting [6]) and 88% in experiment [2] (setting [7]). In addition, the inhibition in vivo at 2.5 µmol/kg in experiment [4] (setting [10]) is 23%.

Consider `Cc1cc(CC(C)NCC(O)c2cccc(C(F)(F)F)c2)ccc1OCCO` (stereo not shown) [Example 11, N-[2-{4-(2-Hydroxyethoxy)-3-methylphenyl}-1-methylethyl]-2-hydroxy-2-(3-trifluoromethylphenyl)ethanamine], for which the response vs control in vivo at 22.1 mg/kg in experiment [2] (setting [5]) was 136%; in experiment [2] (setting [6]), 113%; in experiment [2] (setting [7]), 115%. For the same compound, in experiment [4] (setting [11]), the inhibition in vivo at 1 µmol/kg stood at 31%.

As to `C[C@H](Cc1ccc(OCCCCO)cc1)NC[C@H](O)c1cccc(C(F)(F)F)c1` [Example 13, N-[2-{4-(4-Hydroxybutoxy)phenyl}-1-(R)-1-methylethyl]-2-(R)-2-hydroxy-2-(3-trifluoromethylphenyl)ethanamine], the response vs control in vivo at 5.7 mg/kg turned out to be 134% in experiment [2] (setting [5]), 116% in experiment [2] (setting [6]) and 93% in experiment [2] (setting [7]). Besides, the Emax in experiment [3] (setting [9]) was 17%; in experiment [3] (setting [8]), 47%. For the same compound, in experiment [4] (setting [11]), the inhibition in vivo at 1 µmol/kg stood at 37%.

For the compound `CC(C)(C)NCC(O)c1ccc(O)c(CO)c1` (stereo not shown) [Salbutamol, reference compound], the Emax was 100% in experiment [3] (salbutamol maximum response (reference), dose not stated, read-out: HEART RATE) and 100% in experiment [3] (salbutamol maximum response (reference), dose not stated, read-out: HEART TENSION).
